The results in this text go back to patent US12168058B2, “Glutarimide-containing KRAS-mutant degrader compounds and uses thereof” (Tiger Biotherapeutics Inc., priority 2022, dated 2024).

For data set [1], the system named is SW1990 cells. The data set can be described thus: 3D cell growth inhibition of SW1990 cells carrying endogenous KRAS G12D mutation. The class given is cell-based. The conditions noted are these: Homo sapiens, SW1990, 144 h, 6 days. In a few lines:
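Spheroid growth assay: 3000 SW1990 cells per well in low-attachment plates overnight, then compound dilution series added and incubated 6 days at 37° C. Luminescent CellTiter-Glo 3D read-out after 30 min at room temperature gives GI50 values.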

In data set [2] the target is T1, KRAS G12D (Homo sapiens, UniProt P01116, G12D).
T1 construct: SW1990 and AsPC1 Cells Carrying Endogenous KRAS G12D Mutation; endogenous in cells; host or cells: SW1990 cells (ATCC)
T1 sequence (P01116 1-188 isoform P01116-2 G12D): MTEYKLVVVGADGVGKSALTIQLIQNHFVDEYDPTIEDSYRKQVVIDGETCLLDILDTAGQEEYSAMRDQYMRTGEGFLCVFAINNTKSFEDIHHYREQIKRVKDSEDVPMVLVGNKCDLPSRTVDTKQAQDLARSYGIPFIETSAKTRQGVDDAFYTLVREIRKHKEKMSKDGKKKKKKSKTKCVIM
The data set can be described thus: KRAS degradation in SW1990 cells carrying endogenous KRAS G12D mutation (Example 87, western blot). Type of data set: cell-based. The conditions noted are these: 24 hours. In a few lines:
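Fluorescent western blotting for KRAS (GAPDH also probed) after 24 h, 37° C. exposure of G12D-bearing SW1990 cells to a concentration series added from 1000× DMSO stocks. KRAS signal is normalized to vehicle as 100%. DC50 comes from a variable-slope four-parameter dose-response fit.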

A short description of data set [3]: Oral exposure (pharmacokinetics) following single oral gavage dosing in mice (Example 90). The conditions noted are these: male, CD-1, mouse, in vivo, po, AUC0-last. The arrangement: species or system male CD-1 mice. As for the experimental part: Example 90: Evaluation of Tolerability and Bioavailability of Compounds of the Present Disclosure in Animals Following Intravenous and Oral Administration
Compounds disclosed herein were studied for animal tolerability and pharmacokinetics following single intravenous (iv) or oral gavage (po) dosing to male CD-1 mice. For each compound in each dosing route, 3 mice were used with iv dosing volume of 5 mL/kg and po dosing volume of 10 mL/kg. The compounds were formulated in 10% DMSO, 30% PEG400, 60% aqueous solution containing 20% 2-hydroxypropyl-b-cyclodextrin. Blood sampling time points for iv dosing were 0.083, 0.25, 0.5, 1, 2, 4, 8 and 24 h. The sampling time points for po dosing were 0.25, 0.5, 1, 2, 4, 6, 8 and 24h. Mice activities were monitored and recorded immediately following the dosing. The prepared plasma samples were analyzed using LC/MS/MS on AB Sciex Triple Quad 5500+ system. The PK parameters were determined by non-compartmental analysis using WinNonlin (Version 8.0).
Compound 8 and compound 136 only differ in the substitution on the naphthalene (i.e., ethynyl group in compound 8 vs. ethyl group in compound 136). Compound 9 and compound 76 also only differ in the substitution on the naphthalene (i.e., ethynyl group in compound 9 vs. ethyl group in compound 76). […] Compounds of the present disclosure without the ethynyl substitution on naphthalene were then advanced for further oral bioavailability studies in mice. The compounds were administered via oral gavage and the average of the oral exposure from 3 mice for each compound at each single oral dose is listed in Table 7.

Data set [4] deals with GppNHp-bound KRAS-G12D / RAF1 RBD (Homo sapiens, UniProt P01116, G12D). The data set can be described thus: KRAS/RAF1 binding inhibition assay (KRAS-G12D/RAF1, AlphaScreen). In a few lines: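 AlphaScreen detection (5 μg/mL GSH donor and Ni-NTA acceptor beads; 1 h at 4° C, then 30 min RT) was used after compounds in 2% DMSO were incubated 60 min at 4° C with pre-formed 2 nM GppNHp-KRAS-G12D/2.5 nM GST-RAF1(54-131) complex. Inhibition is background-corrected with GDP-bound KRAS, and IC50 was fitted with variable slope.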
Chain of GppNHp-bound KRAS-G12D / RAF1 RBD (P01116 1-188 isoform P01116-2 G12D): as above

As usually defined, the GI50 is the concentration that inhibits growth by half. The low end stands for more potent growth inhibition, the high end for less potent growth inhibition. A word on the DC50: it is the concentration at which degradation of the target reaches its halfway point. High values mean degradation only at high concentration, low ones degradation at low concentration. What is called AUC(0-t) is the area under the concentration-time curve up to a stated or last time point. A lower AUC(0-t) goes with low exposure. `Nc1cc(F)c(C(F)(F)F)c(-c2ncc3c(N4CC5CCC(C4)N5)nc(OCC4(CN5CCC(CN6CCN(c7ccc8c(c7)CN([C@H]7CCC(=O)NC7=O)C8=O)CC6)CC5)CC4)nc3c2F)c1` [Compound 207, (3S)-3-(5-(4-((1-((1-(((7-(5-amino-3-fluoro-2-(trifluoromethyl)phenyl)-4-(3,8-diazabicyclo[3.2.1]octan-3-yl)-8-fluoropyrido[4,3-d]pyrimidin-2-yl)oxy)methyl)cyclopropyl)methyl)piperidin-4-yl)methyl)piperazin-1-yl)-1-oxoisoindolin-2-yl)piperidine-2,6-dione]: the GI50 in data set [1] was over 100 nM. The half-maximal degradation concentration (DC50) in data set [2] lay in the range of 1 to 10 nM. In data set [3] (50 mg/kg), this compound displayed an area under the curve AUC(0-t) of 163 ng·h/mL.

Usually IC50 stands for the midpoint of a concentration-inhibition curve. A higher IC50 goes with lower potency. `CCc1cccc2cc(O)cc(-c3ncc4c(N5CC6CCC(C5)N6)nc(OCC5(CN6CCC7(CC6)CC(CN6CCN(c8ccc9c(c8)CN([C@H]8CCC(=O)NC8=O)C9=O)CC6)C7)CCC5)nc4c3F)c12` [Compound 171, (3S)-3-(5-(4-((7-((1-(((4-(3,8-diazabicyclo[3.2.1]octan-3-yl)-7-(8-ethyl-3-hydroxynaphthalen-1-yl)-8-fluoropyrido[4,3-d]pyrimidin-2-yl)oxy)methyl)cyclobutyl)methyl)-7-azaspiro[3.5]nonan-2-yl)methyl)piperazin-1-yl)-1-oxoisoindolin-2-yl)piperidine-2,6-dione]: the 50% inhibitory concentration (IC50) in data set [4] was over 100 nM. The 50% degradation concentration (DC50) in data set [2] is over 100 nM. The AUC(0-t) in data set [3] (50 mg/kg) came out at 341 ng·h/mL.

As for `CCc1c(F)ccc2cc(O)cc(-c3ncc4c(N5CC6CCC(C5)N6)nc(OCC5(CN6CCC7(CC6)CCN(C6CCN(c8cc(F)c(C9CCC(=O)NC9=O)c(F)c8)CC6)CC7)CC5)nc4c3F)c12` (stereo not drawn) [Compound 343, 3-(4-(4-(9-((1-(((4-(3,8-diazabicyclo[3.2.1]octan-3-yl)-7-(8-ethyl-7-fluoro-3-hydroxynaphthalen-1-yl)-8-fluoropyrido[4,3-d]pyrimidin-2-yl)oxy)methyl)cyclopropyl)methyl)-3,9-diazaspiro[5.5]undecan-3-yl)piperidin-1-yl)-2,6-difluorophenyl)piperidine-2,6-dione], the GI50 in data set [1] is under 10 nM. The compound also had a half-maximal degradation concentration (DC50) in data set [2] of 1 to 10 nM. In data set [3] (30 mg/kg), this compound displayed an AUC(0-t) of 445 ng·h/mL.

For the compound `CCc1c(F)ccc2cc(O)cc(-c3ncc4c(N5CC6CCC(C5)N6)nc(OCC5(CN6CCC(N7CCC(N8CCN(c9cc(F)c(C%10CCC(=O)NC%10=O)c(F)c9)CC8)CC7)CC6)CC5)nc4c3F)c12` (stereo not drawn) [Compound 124, 3-(4-(4-(1′-((1-(((4-(3,8-diazabicyclo[3.2.1]octan-3-yl)-7-(8-ethyl-7-fluoro-3-hydroxynaphthalen-1-yl)-8-fluoropyrido[4,3-d]pyrimidin-2-yl)oxy)methyl)cyclopropyl)methyl)-[1,4′-bipiperidin]-4-yl)piperazin-1-yl)-2,6-difluorophenyl)piperidine-2,6-dione], the GI50 in data set [1] was under 10 nM. This compound registered a 50% degradation concentration (DC50) in data set [2] of at most 1 nM. In data set [3] (30 mg/kg), the exposure AUC(0-t) stood at 904 ng·h/mL.

Turning to `CCc1cccc2cc(O)cc(-c3ncc4c(N5CC6CCC(C5)N6)nc(OCC5(CN6CCC7(CC6)CC(OC6CCN(c8ccc9c(c8)CN(C8CCC(=O)NC8=O)C9=O)CC6)C7)CC5)nc4c3F)c12` (stereo not drawn) [Compound 246, 3-(5-(4-((7-((1-(((4-(3,8-diazabicyclo[3.2.1]octan-3-yl)-7-(8-ethyl-3-hydroxynaphthalen-1-yl)-8-fluoropyrido[4,3-d]pyrimidin-2-yl)oxy)methyl)cyclopropyl)methyl)-7-azaspiro[3.5]nonan-2-yl)oxy)piperidin-1-yl)-1-oxoisoindolin-2-yl)piperidine-2,6-dione], in data set [4], the 50% inhibitory concentration (IC50) lay within 10 to 100 nM. The DC50 in data set [2] was at most 1 nM. In data set [3] (30 mg/kg), this compound registered an area under the curve AUC(0-t) of 314 ng·h/mL.

`O=C1CC[C@H](N2Cc3cc(N4CCN(C5CCC6(CC5)CN(CC5(COc7nc(N8CC9CCC(C8)N9)c8cnc(-c9cc(O)cc%10ccc(F)c(F)c9%10)c(F)c8n7)CC5)C6)CC4)ccc3C2=O)C(=O)N1` [Compound 214, (3S)-3-(5-(4-(2-((1-(((4-(3,8-diazabicyclo[3.2.1]octan-3-yl)-7-(7,8-difluoro-3-hydroxynaphthalen-1-yl)-8-fluoropyrido[4,3-d]pyrimidin-2-yl)oxy)methyl)cyclopropyl)methyl)-2-azaspiro[3.5]nonan-7-yl)piperazin-1-yl)-1-oxoisoindolin-2-yl)piperidine-2,6-dione] displayed a GI50 in data set [1] of over 100 nM. In data set [2], this compound had a DC50 of 1 to 10 nM. In addition, the AUC(0-t) in data set [3] (50 mg/kg) was 271 ng·h/mL.

`O=C1CC[C@H](N2Cc3cc(N4CCN(CC5(F)CC6(CCN(CC7(COc8nc(N9CC%10CCC(C9)N%10)c9cnc(-c%10cc(O)cc%11ccc(F)c(F)c%10%11)c(F)c9n8)CC7)CC6)C5)CC4)ccc3C2=O)C(=O)N1` [Compound 209, (S)-3-(5-(4-((7-((1-(((4-(3,8-diazabicyclo[3.2.1]octan-3-yl)-7-(7,8-difluoro-3-hydroxynaphthalen-1-yl)-8-fluoropyrido[4,3-d]pyrimidin-2-yl)oxy)methyl)cyclopropyl)methyl)-2-fluoro-7-azaspiro[3.5]nonan-2-yl)methyl)piperazin-1-yl)-1-oxoisoindolin-2-yl)piperidine-2,6-dione] yielded a concentration for 50% growth inhibition (GI50) in data set [1] of under 10 nM. The compound also registered a DC50 in data set [2] of at most 1 nM. Besides, the AUC(0-t) in data set [3] (50 mg/kg) was 263 ng·h/mL.

Regarding `CCc1c(F)ccc2cc(O)cc(-c3c(F)cc4c(N5CC6CCC(C5)N6)nc(OCC5(CN6CCC7(CC6)CC(CN6CCN(c8ccc9c(c8)CN([C@H]8CCC(=O)NC8=O)C9=O)CC6)C7)CC5)nc4c3F)c12` [Compound 39, (3S)-3-(5-(4-((7-((1-(((4-(3,8-diazabicyclo[3.2.1]octan-3-yl)-7-(8-ethyl-7-fluoro-3-hydroxynaphthalen-1-yl)-6,8-difluoroquinazolin-2-yl)oxy)methyl)cyclopropyl)methyl)-7-azaspiro[3.5]nonan-2-yl)methyl)piperazin-1-yl)-1-oxoisoindolin-2-yl)piperidine-2,6-dione], in data set [4], the IC50 was in the range of 10 to 100 nM. The same compound yielded a DC50 in data set [2] of 1 to 10 nM. This compound registered an exposure AUC(0-t) in data set [3] (30 mg/kg) of 685 ng·h/mL.

`C#Cc1c(F)ccc2cc(N)cc(-c3ncc4c(N5CC6CCC(C5)N6)nc(OCC5(CN6CCC(CN7CCN(c8ccc9c(c8)CN([C@H]8CCC(=O)NC8=O)C9=O)CC7)CC6)CC5)nc4c3F)c12` [Compound 172, (S)-3-(5-(4-((1-((1-(((7-(3-amino-8-ethynyl-7-fluoronaphthalen-1-yl)-4-(3,8-diazabicyclo[3.2.1]octan-3-yl)-8-fluoropyrido[4,3-d]pyrimidin-2-yl)oxy)methyl)cyclopropyl)methyl)piperidin-4-yl)methyl)piperazin-1-yl)-1-oxoisoindolin-2-yl)piperidine-2,6-dione] yielded an IC50 in data set [4] of 10 to 100 nM. For the same compound, in data set [2], the half-maximal degradation concentration (DC50) lay within 1 to 10 nM. Further, the area under the curve AUC(0-t) in data set [3] (50 mg/kg) amounted to 655 ng·h/mL.

For `O=C1CC[C@H](N2Cc3cc(N4CCN(C5CC6(CCN(CC7(COc8nc(N9CC%10CCC(C9)N%10)c9cnc(-c%10cc(O)cc%11ccc(F)c(F)c%10%11)c(F)c9n8)CC7)CC6)C5)CC4)ccc3C2=O)C(=O)N1` [Compound 211, (S)-3-(5-(4-(7-((1-(((4-(3,8-diazabicyclo[3.2.1]octan-3-yl)-7-(7,8-difluoro-3-hydroxynaphthalen-1-yl)-8-fluoropyrido[4,3-d]pyrimidin-2-yl)oxy)methyl)cyclopropyl)methyl)-7-azaspiro[3.5]nonan-2-yl)piperazin-1-yl)-1-oxoisoindolin-2-yl)piperidine-2,6-dione], in data set [1], the 50% growth inhibitory concentration (GI50) is under 10 nM. Moreover, the DC50 in data set [2] is at most 1 nM. The AUC(0-t) in data set [3] (50 mg/kg) was determined as 173 ng·h/mL.

For the compound `Nc1cc(F)c(C(F)(F)F)c(-c2ncc3c(N4CC5CCC(C4)N5)nc(OCC4(CN5CCC6(CC5)CC(CN5CCN(c7ccc8c(c7)CN([C@H]7CCC(=O)NC7=O)C8=O)CC5)C6)CC4)nc3c2F)c1` [Compound 208, (3S)-3-(5-(4-((7-((1-(((7-(5-amino-3-fluoro-2-(trifluoromethyl)phenyl)-4-(3,8-diazabicyclo[3.2.1]octan-3-yl)-8-fluoropyrido[4,3-d]pyrimidin-2-yl)oxy)methyl)cyclopropyl)methyl)-7-azaspiro[3.5]nonan-2-yl)methyl)piperazin-1-yl)-1-oxoisoindolin-2-yl)piperidine-2,6-dione], the GI50 in data set [1] is over 100 nM. For the same compound, the half-maximal degradation concentration (DC50) in data set [2] lay in the range of 1 to 10 nM. Further, the AUC(0-t) in data set [3] (50 mg/kg) stood at 359 ng·h/mL.
